# Columns and labels:
# IL-31 = assay: Phase 2 CSU study: serum IL-31 HTRF assay; assay type: in vivo, human; conditions: for IL-31 (ng/mL) Median Percent Change from Baseline: Baseline to Week 12
# Excerpt: Blood samples were also collected through Week 12 to evaluate the change in baseline in various biomarkers, including sMRGPRX2, IgG anti-TPO, IgG anti-FCεRI, IgG anti-IgE, and IL-31.
# Collection of biological samples for other biomarker research was also part of this study. The following samples for biomarker research were required and were to be collected from all participants in this study: • Serum and plasma samples for soluble biomarkers and cellular tests. Analytes included IgG anti-IgE, IgG anti-FcεRI, IgG anti-TPO, IgE anti-TPO, IL-31, and sMRGPRX2. • Blood samples for immune cell phenotyping, including measurement of eosinophil levels • Blood samples for BTK occupancy in peripheral blood mononuclear cells (PBMCs) at selected sites
# For each patient, serum samples were to be collected on each of four visits (Visits 2, 4, 6, and end of study/follow up).
# Serum analyte testing was to be performed using the following commercial assays: • sMRGPRX2 ELISA (Cat. No. #MBS933336; MyBioSource) • IL-31 HTRF assay (Cat. No. #62HIL31PEG; Cisbio/PerkinElmer) • IgG anti-TPO ELISA (Cat. No. #ORG503; Orgentec Diagnostica GmbH)
# If dilutions were to be prepared, the same dilutions were to be prepared twice from each sample. These were to be measured on different plates. Each plate was to include a standard curve. Samples were to be measured twice for all biomarkers except for sMRGPRX2. Mean measurement values were to be calculated, and the concentration of the biomarker was to be calculated using GraphPad Prism 9 software (4-PL model).
# The IL-31 HTRF assay was performed according to the manufacturer's instructions.
# Assay data ranges are described below. • sMRGPRX2: 0.1 ng/mL-10 ng/mL • IgG anti-FCεRI: 0-10000 arbitrary units (AU) • IgG anti-TPO: 0-3000 international units (IU) • IgE anti-TPO: 0-500 AU • IgG anti-IgE: 0-100000 AU • IL-31: 0.1 ng/mL-20 ng/mL
# total serum IgE or IgG = assay: Phase 2 CSU study: total serum immunoglobulins (IgE, IgG, IgM); conditions: for Total IgE (IU/mL) Median Percent Change from Baseline / Total IgG (g/L) Median Percent Change from Baseline: Baseline to Week 12
# Procedure: Changes in disease-relevant biomarkers were assessed over the course of the 12-Week double-blind phase (see FIG. 40). Biomarkers included sMRGPRX2, IgE anti-TPO, IgG anti-FCεRI, IL-31, IgM, IgE, IgG, IgG anti-IgE, and white blood cell levels.
# other TEC family members = conditions: cited from earlier work
compound,measurement,setting,value
"CC(C)(C=C(C#N)C(=O)N1CCC[C@@H](n2nc(-c3ccc(Oc4ccccc4)cc3F)c3c(N)ncnc32)C1)N1CCN(C2COC2)CC1 [rilzabrutinib, (R)-2-[3-[4-amino-3-(2-fluoro-4-phenoxy-phenyl)pyrazolo[3,4-d]pyrimidin-1-yl]piperidine-1-carbonyl]-4-methyl-4-[4-(oxetan-3-yl)piperazin-1-yl]pent-2-enenitrile]",reduction from baseline median IL-31 levels,"IL-31; 400 mg TID, Week 12",8.1%
same,IL-31 (ng/mL) Median Percent Change from Baseline,IL-31; 400 mg BID,−6.8%
same,IL-31 (ng/mL) Median Percent Change from Baseline,IL-31; 400 mg QPM,−11.6%
same,IL-31 (ng/mL) Median Percent Change from Baseline,IL-31; 400 mg TID,−8.1%
same,change in total serum IgE or IgG levels,total serum IgE or IgG; 12-week double-blind phase,not associated with a change
same,Total IgE (IU/mL) Median Percent Change from Baseline,total serum IgE or IgG; 400 mg BID,3.9%
same,Total IgG (g/L) Median Percent Change from Baseline,total serum IgE or IgG; 400 mg BID,0.96%
same,Total IgE (IU/mL) Median Percent Change from Baseline,total serum IgE or IgG; 400 mg QPM,3.4%
same,Total IgG (g/L) Median Percent Change from Baseline,total serum IgE or IgG; 400 mg QPM,−1.99%
same,Total IgE (IU/mL) Median Percent Change from Baseline,total serum IgE or IgG; 400 mg TID,4.1%
same,Total IgG (g/L) Median Percent Change from Baseline,total serum IgE or IgG; 400 mg TID,0.24%
same,binding over time,other TEC family members,decayed rapidly over time

# From patent US20260256792A1, “TREATMENT OF CHRONIC SPONTANEOUS URTICARIA BY ADMINISTERING (R)-2-[3-[4-AMINO-3-(2-FLUORO-4-PHENOXY-PHENYL)PYRAZOLO[3,4-D]PYRIMIDIN-1-YL]PIPERIDINE-1-CARBONYL]-4-METHYL-4-[4-(OXETAN-3-YL)PIPERAZIN-1-YL]PENT-2-ENENITRILE” (priority 2023, published 2026)
